Experiments:
[1] = biological target: T1, human ERK2 (Homo sapiens, UniProt P28482); experiment: LanthaScreen TR-FRET enzymatic assay, ERK2; conditions: IC50 values of ERK2 biochemical activity; 5 μM ATP, 400 nM ATF2-GFP substrate
T1 construct: recombinantly expressed as GST-tagged full-length protein purified from E. coli; GST; purchased Invitrogen PV3311; host or cells: E. coli
Summary of the method: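 GST-tagged full-length ERK2 from E. coli, activated with MAP2K1, was used at 20 ng/ml with 400 nM GFP-ATF2(19-96) and 5 μM ATP (near Km). Compound was pre-incubated 15 min, and the reaction ran 1 h at room temperature. pThr71 was detected by Tb-antibody TR-FRET ratio, with IC50 from sigmoid fitting against 1% DMSO.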

[2] = system: Colo205 cell line; experiment: Colo205 cell proliferation assay (MTT assay, WST-8 readout); assay type: cell-based; conditions: Homo sapiens; IC50 values of growth inhibition in Colo 205 cells; 72 hours
Summary of the method: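 Colo205 cells were seeded at 5,000 cells/well in RPMI-1640 with 10% FBS and attached for 24 h at 37° C. They were then exposed for 72 h to compound at final 50 μM to 0.005 μM (0.5% DMSO). Viability was read as WST-8 absorbance at 450 nm after 2 h, and IC50 of growth inhibition was determined.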

T1 sequence (P28482 whole entry): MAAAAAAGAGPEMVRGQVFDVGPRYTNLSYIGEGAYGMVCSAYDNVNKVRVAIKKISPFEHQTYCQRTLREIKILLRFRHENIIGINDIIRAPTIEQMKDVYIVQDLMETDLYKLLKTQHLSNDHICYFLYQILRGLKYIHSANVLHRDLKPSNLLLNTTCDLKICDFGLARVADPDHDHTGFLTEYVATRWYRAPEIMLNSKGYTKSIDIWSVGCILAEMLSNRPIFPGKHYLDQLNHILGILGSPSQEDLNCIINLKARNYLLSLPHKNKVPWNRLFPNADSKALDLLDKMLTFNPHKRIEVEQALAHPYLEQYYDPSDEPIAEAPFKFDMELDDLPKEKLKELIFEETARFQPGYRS

With CCOc1ccc(-c2n[nH]c3ccc(-c4ccn([C@H](CO)c5cc(F)cc(Br)c5)c(=O)c4)cc23)cn1 [Example 102, (S)-1-(1-(3-bromo-5-fluorophenyl)-2-hydroxyethyl)-4-(3-(6-ethoxypyridin-3-yl)-1H-indazol-5-yl)pyridin-2(1H)-one] the IC50 [1] was less than 10 nM and the IC50 [2] was no more than 500 nM.
Work on COc1ccc(-c2n[nH]c3ccc(-c4ccn([C@H](CO)c5cc(F)cc(Br)c5)c(=O)c4)cc23)cn1 [Example 103, (S)-1-(1-(3-bromo-5-fluorophenyl)-2-hydroxyethyl)-4-(3-(6-methoxypyridin-3-yl)-1H-indazol-5-yl)pyridin-2(1H)-one] yielded an IC50 [1] of less than 10 nM and an IC50 [2] of no more than 500 nM.
Cc1cc(-c2n[nH]c3ncc(-c4ccn(Cc5ccnc(C(F)(F)F)c5)c(=O)c4)cc23)ccn1 [Example 104, 4-(3-(2-methylpyridin-4-yl)-1H-pyrazolo[3,4-b]pyridin-5-yl)-1-((2-(trifluoromethyl)pyridin-4-yl)methyl)pyridin-2(1H)-one] showed an IC50 [1] of 10 to 50 nM and an IC50 [2] of 500 to 1000 nM.
In the case of Cc1cc(-c2n[nH]c3ncc(-c4ccn(C(C)c5cc(F)cc(Br)c5)c(=O)c4)cc23)ccn1 (stereo not drawn) [Example 105, 1-(1-(3-bromo-5-fluorophenyl)ethyl)-4-(3-(2-methylpyridin-4-yl)-1H-pyrazolo[3,4-b]pyridin-5-yl)pyridin-2(1H)-one], the IC50 [1] is reported as less than 10 nM and the IC50 [2] is reported as 500 to 1000 nM.
Cn1cc(-c2n[nH]c3ncc(-c4ccn([C@H](CO)c5cc(F)cc(Br)c5)c(=O)c4)cc23)cn1 [Example 106, (S)-1-(1-(3-bromo-5-fluorophenyl)-2-hydroxyethyl)-4-(3-(1-methyl-1H-pyrazol-4-yl)-1H-pyrazolo[3,4-b]pyridin-5-yl)pyridin-2(1H)-one] was tested, and the IC50 [1] was less than 10 nM and the IC50 [2] was 500 to 1000 nM.
Work on CNCC(c1ccc(F)c(Cl)c1)n1ccc(-c2ccc3[nH]nc(-c4ccnc(C)c4)c3c2)cc1=O (stereo not drawn) [Example 107, 1-(1-(3-chloro-4-fluorophenyl)-2-(methylamino)ethyl)-4-(3-(2-methylpyridin-4-yl)-1H-indazol-5-yl)pyridin-2(1H)-one] yielded an IC50 [1] of less than 10 nM and an IC50 [2] of no more than 500 nM.
Cn1cc(-c2n[nH]c3ncc(-c4ccn([C@H](CO)c5ccc(F)c(Cl)c5)c(=O)c4)cc23)cn1 [Example 108, (S)-1-(1-(3-chloro-4-fluorophenyl)-2-hydroxyethyl)-4-(3-(1-methyl-1H-pyrazol-4-yl)-1H-pyrazolo[3,4-b]pyridin-5-yl)pyridin-2(1H)-one] gave an IC50 [1] of less than 10 nM and an IC50 [2] of 1000 to 5000 nM.
For O=c1cc(-c2ccc3[nH]nc(-c4cnn(CCO)c4)c3c2)ccn1[C@H](CO)c1ccc(F)c(Cl)c1 [Example 109, (S)-1-(1-(3-chloro-4-fluorophenyl)-2-hydroxyethyl)-4-(3-(1-(2-hydroxyethyl)-1H-pyrazol-4-yl)-1H-indazol-5-yl)pyridin-2(1H)-one], the IC50 [1] was less than 10 nM and the IC50 [2] was greater than 5000 nM.
Work on CCOc1ccc(-c2n[nH]c3ncc(-c4ccn([C@H](CO)c5cc(F)cc(Br)c5)c(=O)c4)cc23)cn1 [Example 110, (S)-1-(1-(3-bromo-5-fluorophenyl)-2-hydroxyethyl)-4-(3-(6-ethoxypyridin-3-yl)-1H-pyrazolo[3,4-b]pyridin-5-yl)pyridin-2(1H)-one] yielded an IC50 [1] of less than 10 nM and an IC50 [2] of 500 to 1000 nM.
With O=c1cc(-c2ccc3[nH]nc(-c4ccc(F)cc4)c3c2)ccn1[C@H](CO)c1cc(F)cc(Br)c1 [Example 111, (S)-1-(1-(3-bromo-5-fluorophenyl)-2-hydroxyethyl)-4-(3-(4-fluorophenyl)-1H-indazol-5-yl)pyridin-2(1H)-one] the IC50 [1] was less than 10 nM and the IC50 [2] was no more than 500 nM.
In the case of Cc1cc(-c2n[nH]c3ccc(-c4ccn(Cc5ccnc(C(F)(F)F)c5)c(=O)c4)nc23)ccn1 [Example 112, 4-(3-(2-methylpyridin-4-yl)-1H-pyrazolo[4,3-b]pyridin-5-yl)-1-((2-(trifluoromethyl)pyridin-4-yl)methyl)pyridin-2(1H)-one], the IC50 [1] is reported as less than 10 nM and the IC50 [2] is reported as 1000 to 5000 nM.
Work on Cn1cc2cc(-c3n[nH]c4ccc(-c5ccn([C@H](CO)c6cc(F)cc(Br)c6)c(=O)c5)cc34)ccc2n1 [Example 113, (S)-1-(1-(3-bromo-5-fluorophenyl)-2-hydroxyethyl)-4-(2′-methyl-1H,2′H-[3,5′-biindazol]-5-yl)pyridin-2(1H)-one] yielded an IC50 [1] of less than 10 nM and an IC50 [2] of no more than 500 nM.
With O=c1cc(-c2ccc3[nH]nc(-c4ccc5ncsc5c4)c3c2)ccn1[C@H](CO)c1cc(F)cc(Br)c1 [Example 114, (S)-4-(3-(benzo[d]thiazol-6-yl)-1H-indazol-5-yl)-1-(1-(3-bromo-5-fluorophenyl)-2-hydroxyethyl)pyridin-2(1H)-one] the IC50 [1] was less than 10 nM and the IC50 [2] was no more than 500 nM.
COc1cc(-c2n[nH]c3ccc(-c4ccn([C@H](CO)c5cc(F)cc(Br)c5)c(=O)c4)cc23)ccn1 [Example 115, (S)-1-(1-(3-bromo-5-fluorophenyl)-2-hydroxyethyl)-4-(3-(2-methoxypyridin-4-yl)-1H-indazol-5-yl)pyridin-2(1H)-one] was tested, and the IC50 [1] was less than 10 nM and the IC50 [2] was no more than 500 nM.
For COc1ccc(-c2n[nH]c3ccc(-c4ccn(Cc5ccnc(C(F)(F)F)c5)c(=O)c4)cc23)cn1 [Example 116, 4-(3-(6-methoxypyridin-3-yl)-1H-indazol-5-yl)-1-((2-(trifluoromethyl)pyridin-4-yl)methyl)pyridin-2(1H)-one], the IC50 [1] was less than 10 nM and the IC50 [2] was 1000 to 5000 nM.
Work on O=c1cc(-c2ccc3[nH]nc(-c4ccc(F)cc4)c3c2)ccn1Cc1ccnc(C(F)(F)F)c1 [Example 117, 4-(3-(4-fluorophenyl)-1H-indazol-5-yl)-1-((2-(trifluoromethyl)pyridin-4-yl)methyl)pyridin-2(1H)-one] yielded an IC50 [1] of less than 10 nM and an IC50 [2] of 1000 to 5000 nM.
For O=c1cc(-c2ccc3[nH]nc(-c4ccc(OC5CC5)nc4)c3c2)ccn1[C@H](CO)c1cc(F)cc(Br)c1 [Example 118, (S)-1-(1-(3-bromo-5-fluorophenyl)-2-hydroxyethyl)-4-(3-(6-cyclopropoxypyridin-3-yl)-1H-indazol-5-yl)pyridin-2(1H)-one], the IC50 [1] was less than 10 nM and the IC50 [2] was no more than 500 nM.
CCOc1cc(-c2n[nH]c3ccc(-c4ccn([C@H](CO)c5cc(F)cc(Br)c5)c(=O)c4)cc23)ccn1 [Example 119, (S)-1-(1-(3-bromo-5-fluorophenyl)-2-hydroxyethyl)-4-(3-(2-ethoxypyridin-4-yl)-1H-indazol-5-yl)pyridin-2(1H)-one] gave an IC50 [1] of less than 10 nM and an IC50 [2] of no more than 500 nM.
For Cn1cc(-c2n[nH]c3ccc(-c4ccn([C@H](CO)c5cc(F)cc(Br)c5)c(=O)c4)cc23)ccc1=O [Example 120, (S)-1-(1-(3-bromo-5-fluorophenyl)-2-hydroxyethyl)-4-(3-(1-methyl-6-oxo-1,6-dihydropyridin-3-yl)-1H-indazol-5-yl)pyridin-2(1H)-one], the IC50 [1] was less than 10 nM and the IC50 [2] was 1000 to 5000 nM.
Compound Cn1ccc(-c2n[nH]c3ccc(-c4ccn([C@H](CO)c5cc(F)cc(Br)c5)c(=O)c4)cc23)cc1=O [Example 121, (S)-1-(1-(3-bromo-5-fluorophenyl)-2-hydroxyethyl)-4-(3-(1-methyl-2-oxo-1,2-dihydropyridin-4-yl)-1H-indazol-5-yl)pyridin-2(1H)-one] has an IC50 [1] of less than 10 nM and an IC50 [2] of 1000 to 5000 nM.
In the case of COc1ccc(-c2n[nH]c3ccc(-c4ccn([C@H](CO)c5cc(F)cc(Br)c5)c(=O)c4)nc23)cn1 [Example 122, (S)-1-(1-(3-bromo-5-fluorophenyl)-2-hydroxyethyl)-4-(3-(6-methoxypyridin-3-yl)-1H-pyrazolo[4,3-b]pyridin-5-yl)pyridin-2(1H)-one], the IC50 [1] is reported as less than 10 nM and the IC50 [2] is reported as 1000 to 5000 nM.
Work on O=c1cc(-c2ccc3[nH]nc(-c4ccc(F)cn4)c3c2)ccn1Cc1ccnc(C(F)(F)F)c1 [Example 123, 4-(3-(5-fluoropyridin-2-yl)-1H-indazol-5-yl)-1-((2-(trifluoromethyl)pyridin-4-yl)methyl)pyridin-2(1H)-one] yielded an IC50 [1] of 10 to 50 nM and an IC50 [2] greater than 5000 nM.
In the case of COc1ccc(-c2n[nH]c3cnc(-c4ccn([C@H](CO)c5cc(F)cc(Br)c5)c(=O)c4)cc23)cn1 [Example 124, (S)-1-(1-(3-bromo-5-fluorophenyl)-2-hydroxyethyl)-4-(3-(6-methoxypyridin-3-yl)-1H-pyrazolo[3,4-c]pyridin-5-yl)pyridin-2(1H)-one], the IC50 [1] is reported as less than 10 nM and the IC50 [2] is reported as 500 to 1000 nM.
With CC(c1cc(F)cc(Br)c1)n1ccc(-c2ccc3[nH]nc([C@H]4CC[C@H](O)CC4)c3c2)cc1=O (stereo partly drawn) [Example 140, 1-(1-(3-bromo-5-fluorophenyl)ethyl)-4-(3-((1r,4r)-4-hydroxycyclohexyl)-1H-indazol-5-yl)pyridin-2(1H)-one] the IC50 [1] was less than 10 nM and the IC50 [2] was 1000 to 5000 nM.
In the case of Cc1cc(-c2n[nH]c3ccc(-c4ccn(C(C)c5ccnc(C(F)(F)F)c5)c(=O)c4)cc23)ccn1 (stereo not drawn) [Example 142, 4-(3-(2-methylpyridin-4-yl)-1H-indazol-5-yl)-1-(1-(2-(trifluoromethyl)pyridin-4-yl)ethyl)pyridin-2(1H)-one], the IC50 [1] is reported as less than 10 nM and the IC50 [2] is reported as no more than 500 nM.
Cc1cc(-c2n[nH]c3ccc(-c4cc(C)n(Cc5ccnc(C(F)(F)F)c5)c(=O)c4)cc23)ccn1 [Example 143, 6-methyl-4-(3-(2-methylpyridin-4-yl)-1H-indazol-5-yl)-1-((2-(trifluoromethyl)pyridin-4-yl)methyl)pyridin-2(1H)-one] was tested, and the IC50 [1] was less than 10 nM and the IC50 [2] was 500 to 1000 nM.
Work on Cc1cc(-c2n[nH]c3cnc(-c4ccn(Cc5ccnc(C(F)(F)F)c5)c(=O)c4)cc23)ccn1 [Example 144, 4-(3-(2-methylpyridin-4-yl)-1H-pyrazolo[3,4-c]pyridin-5-yl)-1-((2-(trifluoromethyl)pyridin-4-yl)methyl)pyridin-2(1H)-one] yielded an IC50 [1] of less than 10 nM and an IC50 [2] of 1000 to 5000 nM.

— patent US11242334B2, “Heterocyclic compounds as kinase inhibitors, compositions comprising the heterocyclic compound, and methods of use thereof” (JS INNOPHARM (SHANGHAI) LTD, priority 2017, dated 2022)
